The source of these data is patent publication US5232937A, “Derivatives of N-phenylbenzamide with anti-ulcer and anti-allergy” (Rotta Research Laboratorium SpA., priority 1989, dated 1993).

Where two headings read alike, the source gives them in different places.

The subject of one series is ulcer caused by ethanol. Description: Cytoprotective activity, ulcer caused by ethanol. It counts as in vivo, rat. As to conditions: Rattus norvegicus, iv, 1 h, read-out: ED50, cytoprotective activity, ulcer caused by ethanol. The method, then:
(§1) The drugs under test were administered intravenously 15 minutes before the irritant. […] It consists of the assignment of arbitrary points according to the number and gravity of the lesions in accordance with the following criterion:
(§2) 1 if the length of the necrotic area is 2 mm
(§3) 2 if the length of the necrotic area is between 2 and 4 mm
(§4) 3 if the length of the necrotic area is 4 mm
(§5) 5 if the length of the area is 4 mm with a perforated ulcer.
(§6) A lesion index is then obtained by adding the number of lesions multiplied by their respective points.

Series [1] can be described thus: Toxicity (LD50 IV in mice). The following applies: mouse, in vivo.
The test system of series [2] is gastric acid secretion induced by pentagastrin. Description: Anti-secretive activity, gastric acid secretion stimulated with pentagastrin (Lai method, modified). It counts as in vivo. The following applies: Rattus norvegicus, iv, 1 h; I.V.; rats; pentagastrin 30 mcg/kg/h; read-out: ED50, antagonistic activity towards secretion induced by pentagastrin. Here is the method: (§7) The anti-secretive activities were determined in rats with the use of male animals weighing approximately 200 g, anaesthetised with urethane. Gastric secretion was stimulated with pentagastrin, histamine or cabachol.
(§8) After tracheotomy, cannulae were inserted in the aesophagus and the duodenum. These were perfused with a tepid solution (37° C.) which was passed through the stomach at a constant flow rate of 1 ml/minute by means of a peristaltic pump. After stabilisation for 20 minutes, the stimulant, dissolved in a physiological solution, was perfused for 120 minutes at the dose indicated in Table 1 in a volume of 0.95 ml/hour. After 60 minutes of perfusion (base stimulation) the product under test was administered intravenously (I.V.) in a bolus and the perfusion of the stimulant was continued for a further 60 minutes. The acid secretion was recorded continuously as a function of time.
(§9) The activity of the product was evaluated as a percentage reduction in the acid secreted after the administration of the product against the base acidity measured in the first 60 minutes of collection which was in the presence of the stimulant alone.

Another series has as its system ulcer caused by stress. As to the kind of experiment: Cytoprotective activity, ulcer caused by stress (containment). It counts as in vivo. The following applies: Rattus norvegicus, im, 5 h, read-out: ED50, cytoprotective activity, ulcer caused by stress. Here is the method:
as §2, §3, §4, §5, §6
Male rats weighing approximately 150 g which had been starved for 24 hours were imprisoned in individual cylindrical cages and immersed up to the xiphoid process in cool water kept thermostatically at 19° C. The compounds were administrated intramuscularly (I.M.) 15 minutes before the start of the test.
5 hours after the start of their containment, the animals were killed, their stomachs were removed and a quantitative evaluation was then carried out as described above.

Series [3] deals with passive cutaneous anaphylaxis reaction. Description: Passive cutaneous anaphylaxis (PCA) in rats, modified Goose and Blair method. The class given is in vivo, rat. As to conditions: for ED50: Rattus norvegicus, iv, 0.5 h, I.V., rats. The method, then: Male rats weighing approximately 400 g were treated with 10 mg/kg of grade V egg albumen dissolved in 1 ml of a physiological solution by I.M. and intraperitoneal (I.P.) routes. With one mg of Freund's complete adjuvent solution. 13 days after sensitisation, the animals were killed under […] anaesthesia, the blood was taken and the serum was kept at -70° C. after its titre of IgE specific to egg albumen had been assayed. On the basis of type, 2 intradermal injections (i.d.) of 0.1 ml of the antiserum, titrated and suitably diluted were given into the shaved backs of 200 g male rats at a time -24h.
The products under test were administered I.V. 20 minutes of the antigen. The animals were killed 30 minutes after the challenge, the skin of the back was turned inside out and the larger and smaller diameters of each blemish were measured. In practice the response of each animal was evaluated as the average of four diameters.

For series [4], the system named is gastric acid secretion induced by carbachol. Description: Anti-secretive activity, gastric acid secretion stimulated with carbachol (Lai method, modified). The class given is in vivo. The following applies: Rattus norvegicus, iv, 1 h; I.V.; rats; carbachol 30 mcg/kg/h; read-out: ED50, antagonistic activity towards secretion induced by carbachol. The method, then: as §7, §8, §9

The subject of series [5] is gastric acid secretion induced by histamine. As to the kind of experiment: Anti-secretive activity, gastric acid secretion stimulated with histamine (Lai method, modified). It counts as in vivo. The following applies: Rattus norvegicus, iv, 1 h; I.V.; rats; histamine 2.3 mg/kg/h; read-out: ED50, antagonistic activity towards secretion induced by histamine. Here is the method:
as §7, §8, §9

A further series has as its system ulcer caused by 25% NaCl. As to the kind of experiment: Cytoprotective activity, ulcer caused by 25% NaCl. It counts as in vivo. As to conditions: Rattus norvegicus, iv, 1 h, read-out: ED50, cytoprotective activity, ulcer caused by 25% NaCl. Here is the method: as §1, §2, §3, §4, §5, §6
Series [6] concerns actively-sensitised guinea-pig lung fragments (histamine release). Description: Anaphylaxis in vitro, histamine release from actively sensitised guinea-pig lung fragments (modified Broklehurst method). The class given is cell-based. Here is the method:
Male guinea pigs weighing approximately 250 g were sensitised with […] of grade V egg albumen dissolved in 1 ml of physiological solution and administered (1 ml/kg) I.P. and subcutaneously (S.C.). After three weeks the animals were killed under ethereal anaesthesia by bleeding. The lungs were removed and immersed in Tyrode solution at 4° C. Homogeneous fragments approximately 2 mm long were cut and divided into test pieces containing approximately 400 mg of tissue and […] of Tyrode. The samples were preincubated at 37° C. for 15 minutes with the compounds under test dissolved in 0.1 of Tyrode and incubated for a further 20 minutes at 37° C. The reaction was stopped by cooling in ice.
0.8 ml of the supernatant liquid were treated with perchloric acid and centrifuged to remove the proteins. The supernatant liquid was then made alkaline with 5N NaOH, the histamine was extracted with n-butanol and, after suitable dilution with n-heptane, was extracted again in dilute HCl.
O-phthalaldehyde was added to the samples and their fluorescence was measured with a fluorimeter at 450 mu after activation at 360 mu.
The histamine concentration in the samples was obtained from a standard straight-line graph in the range 50-800 ng/ml of histamine.

As usually defined, the ED50 is the midpoint of the dose-response relation. The term LD50 denotes the dose expected to kill half of the subjects tested. A higher LD50 goes with a less toxic substance. As for `N#Cc1ccc(C(=O)Nc2cc(C(=O)O)cc(C(=O)O)c2)cc1` [Compound 1, N-(3,5-dicarboxy)phenyl-4-cyanobenzamide], the ED50 in the series with ulcer caused by ethanol (I.V., rats, 15 minutes before ethanol) was 45 mg/kg; in [2], 50 mg/kg; with ulcer caused by stress (I.M., rats, 15 minutes before the test) it was 135 mg/kg; in series [3], 128 mg/kg; in [4] it was 33 mg/kg; in series [5] it was 47 mg/kg. In addition, the median effective dose (ED50) in the series on ulcer caused by 25% NaCl (I.V., rats, 15 minutes before NaCl) amounted to 42 mg/kg. In [1] (IV in mice), this molecule displayed an LD50 of 2400 mg/kg. Moreover, in [1] (LD50 IV mice versus ED50 of pentagastrin, read-out: toxic dose relative to the antacid-secretion dose), the selectivity ratio was roughly 50. Besides, the “% inhibition of passive cutaneous anaphylaxis” value worked out at 20.0% in [3] (50 mg/kg I.V.), 37.2% in series [3] (100 mg/kg I.V.) and 58.2% in series [3] (150 mg/kg I.V.).

Broadly, the inhibition is the drop in the measured response relative to a control, in per cent. Usually EC50 stands for the concentration at which the effect is half-maximal. `O=C(Nc1ccc(-c2nn[nH]n2)cc1)c1ccc(-c2nn[nH]n2)cc1` [Compound 12, N-°4-(5-tetrazolyl)phenyl-4-(5-tetrazolyl)-benzamide]: the median effective dose (ED50) was 3 mg/kg with ulcer caused by ethanol; 26 mg/kg in series [2]; 56 mg/kg in the series on ulcer caused by stress; 30.9 mg/kg in series [3]; 30 mg/kg in [4]; 32 mg/kg in series [5]. Further, in the series on ulcer caused by 25% NaCl, the ED50 is 12 mg/kg. Also, the inhibition at 10 µg/mL in [6] (Cavia porcellus, 10 mcg/ml, read-out: % inhibition of anaphylactic histamine release) amounted to 22.8%. The inhibition at 30 µg/mL in series [6] (Cavia porcellus, 30 mcg/ml, read-out: % inhibition of anaphylactic histamine release) stood at 28.4%. Besides, in series [6] (Cavia porcellus, 100 mcg/ml, read-out: % inhibition of anaphylactic histamine release), the inhibition at 100 µg/mL is 56.2%. Moreover, in [6] (Cavia porcellus, 300 mcg/ml, read-out: % inhibition of anaphylactic histamine release), the inhibition at 300 µg/mL came to 65.4%. In addition, the EC50 in series [6] (Cavia porcellus, guinea-pig lung fragments in vitro, read-out: EC50, anaphylactic histamine release) came out at 93 µg/mL. In addition, the “activity in the in vitro anaphylaxis model relative to DSCG” value in series [6] (compared with DSCG) is listed as 10-15 times. Besides, the “% inhibition of passive cutaneous anaphylaxis” value in series [3] (10 mg/kg I.V.) turned out to be 39.0%; in series [3] (30 mg/kg I.V.), 45.3%; in series [3] (100 mg/kg I.V.), 67.6%.
